From patent publication EP0033088A2, “Antimycotic agents” (BAYER AG, priority 1980, dated 1981)

These molecules were tested on Candida (assay: Antimicrobial in-vivo activity (oral) in mouse candidosis). Details: mice infected i.v. with Candida cells; 50 to 100 mg/kg oral, one hour before and seven hours after infection; compared with prior-art compounds; untreated survival about 5 % on day 6.
Set-up: species or system Mäuse vom Typ SPF-DF1
Protocol: Mäuse vom Typ SPF-DF1 wurden intravenös mit 1 bis 2 x 10^6 logarytmisch wachsenden Candida-Zellen, die in physiologischer Kochsalzlösung suspendiert waren, infiziert. Eine Stunde vor und sieben Stunden nach der Infektion werden die Tiere mit jeweils 50 bis 100 mg/kg Körpergewicht der Präparate oral behandelt.
Unbehandelte Tiere starben 3 bis 6 Tage post infektionem. Die Überlebensrate am 6. Tag post infektionem betrug bei unbehandelten Kontrolltieren etwa 5 %.

SMILES	in-vivo-Wirksamkeit
CC(C)(C)C(O)C(C(O)C(Cl)(Cl)Cl)n1cncn1 (centres unmarked) [Beispiel 1, 1,1,1-Trichlor-3-(1,2,4-triazol-1-yl)-5,5-dimethyl-hexan-2,4-diol]	denjenigen der Verbindungen des Standes der Technik überlegen
CC(C)(C)C(O)C(C(O)C(C)(C)Cl)n1cncn1 (centres unmarked) [Beispiel 4]	denjenigen der Verbindungen des Standes der Technik überlegen
CC(C)(C)C(O)C(C(O)C=C(Cl)Cl)n1cncn1 (centres unmarked) [Beispiel 6]	denjenigen der Verbindungen des Standes der Technik überlegen
CC(Cl)C(Cl)(Cl)C(O)C(C(O)C(C)(C)CF)n1cncn1 (centres unmarked) [Beispiel 11]	denjenigen der Verbindungen des Standes der Technik überlegen
OC(c1ccc(Cl)cc1)C(C(O)C(Cl)(Cl)Cl)n1cncn1 (centres unmarked) [Beispiel 12]	denjenigen der Verbindungen des Standes der Technik überlegen
OC(c1ccc(Cl)cc1Cl)C(C(O)C(Cl)(Cl)Cl)n1cncn1 (centres unmarked) [Beispiel 14]	denjenigen der Verbindungen des Standes der Technik überlegen
OC(c1ccc(F)cc1)C(C(O)C(Cl)(Cl)Cl)n1cncn1 (centres unmarked) [Beispiel 15]	denjenigen der Verbindungen des Standes der Technik überlegen
CC(Cl)C(Cl)(Cl)C(O)C(C(O)C(C)(C)C)n1cncn1 (centres unmarked) [Beispiel 21]	denjenigen der Verbindungen des Standes der Technik überlegen
